The values below come from patent US11510872B2, “Nanoparticle-lipid composite carriers and uses thereof” (Northwestern University, priority 2017, dated 2022).

The test system of the assay is HepG2 cells. Nature of the assay: MTS assay for cell viability / cytotoxicity in HepG2 cells. The class given is cell-based. As to conditions: Homo sapiens; HepG2 cells after 48 h, without thermal activation; read-out: IC50 μg PTX/ml. Here is the method:
HepG2 liver cancer cell line and J774 murine macrophage cells (provided by Prof. Colby Shad Thaxton, Department of Urology, Feinberg School of Medicine, Northwestern University) were grown in RPMI-1640 medium containing 10% FBS and penicillin/streptomycin (100 units/mL and 100 μg/mL, respectively). The cells were cultured at 37° C. with 5% CO2 atmosphere in T75 flasks.
The biocompatibility of the MLCCs and cytotoxicity was tested using MTS (3-(4,5-dimethylthiazol-2-yl)-5-(3-carboxymethoxyphenyl)-2-(4-sulfophenyl)-2H-tetrazolium) assay. Briefly, J774 and HepG2 cells were plated at 1×10^5 cells per well in 24-well plate with 70-80% of confluency. […] To compare the effect of drug loaded MLCCs with native drug, Cells were also treated with different concentration of native drug (similar to amount of drug entrapped within the MLCCs as calculated from measurement via HPLC). […] MTS assay was used to quantify the cell viability according to the protocol provided by the manufacture (CellTiter 96 Aqueous One Solution Cell Proliferation Assay; Promega). The optical densities were recorded at 490 nm and 700 nm using BioTek Synergy™ 4 Hybrid Microplate Reader. The background absorbance at 700 nm was subtracted from absorbance at 490 nm. […] The IC50 values were calculated by nonlinear curve fit using dose response-inhibition equation with Graphpad Prism 5.0. […]

For `CC(=O)O[C@H]1C(=O)[C@@]2(C)[C@H]([C@H](OC(=O)c3ccccc3)[C@]3(O)C[C@H](OC(=O)[C@H](O)[C@@H](NC(=O)c4ccccc4)c4ccccc4)C(C)=C1C3(C)C)[C@]1(OC(C)=O)CO[C@@H]1C[C@@H]2O` [PTX, paclitaxel], the IC50 came to 0.63 µg/mL.
